Experimental data published in ChEMBL document CHEMBL1139308, “Identification and synthesis of 2,7-diamino-thiazolo[5,4-d]pyrimidine derivatives as TRPV1 antagonists” (Bioorg Med Chem Lett, 2009).
Converted amounts (≈) assume the structure as drawn. The source made the active and inactive calls. The rule behind the calls is not given here.

Experiments:
[1] = biological target: T1, Transient receptor potential cation channel subfamily V member 1 (Rattus norvegicus, UniProt O35433); experiment: Antagonist activity at rat TRPV1 expressed in HEK293 cells assessed as inhibition of capsaicin-induced calcium flux; format: functional, cell-based
T1 sequence (O35433 whole entry): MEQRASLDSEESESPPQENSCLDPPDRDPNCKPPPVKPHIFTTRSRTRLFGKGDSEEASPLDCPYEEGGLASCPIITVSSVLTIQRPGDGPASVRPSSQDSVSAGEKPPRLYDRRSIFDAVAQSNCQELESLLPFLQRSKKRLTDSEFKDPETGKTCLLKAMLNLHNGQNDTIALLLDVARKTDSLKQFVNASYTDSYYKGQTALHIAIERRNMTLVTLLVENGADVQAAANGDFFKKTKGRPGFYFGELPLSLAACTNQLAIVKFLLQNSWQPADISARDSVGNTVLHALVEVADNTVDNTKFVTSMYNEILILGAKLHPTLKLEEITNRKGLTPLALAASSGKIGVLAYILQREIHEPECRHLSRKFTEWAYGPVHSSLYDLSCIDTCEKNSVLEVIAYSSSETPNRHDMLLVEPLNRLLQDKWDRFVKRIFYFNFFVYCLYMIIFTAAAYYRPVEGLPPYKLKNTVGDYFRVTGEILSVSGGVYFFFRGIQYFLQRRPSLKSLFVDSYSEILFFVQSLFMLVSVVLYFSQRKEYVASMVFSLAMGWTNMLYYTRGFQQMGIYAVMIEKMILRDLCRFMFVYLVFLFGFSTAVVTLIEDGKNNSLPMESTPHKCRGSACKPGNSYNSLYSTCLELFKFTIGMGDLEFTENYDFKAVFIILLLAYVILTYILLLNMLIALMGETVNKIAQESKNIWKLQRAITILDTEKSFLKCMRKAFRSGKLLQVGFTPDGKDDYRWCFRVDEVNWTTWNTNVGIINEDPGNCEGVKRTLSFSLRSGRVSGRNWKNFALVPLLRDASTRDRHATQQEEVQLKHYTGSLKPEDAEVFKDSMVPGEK

[2] = Clearance in fasted Sprague-Dawley rat at 0.5 mg/kg, iv and 2 mg/kg, po; format: ADME, organism-based; settings: in vivo
[3] = Volume of distribution at steady state in fasted Sprague-Dawley rat at 0.5 mg/kg, iv and 2 mg/kg, po; format: ADME, organism-based; settings: in vivo, read-out: Vdss
[4] = Half life in fasted Sprague-Dawley rat at 0.5 mg/kg, iv and 2 mg/kg, po; format: ADME, organism-based; settings: in vivo
[5] = Cmax in fasted Sprague-Dawley rat at 2 mg/kg, po; format: ADME, organism-based; design: dose 2 mg/kg, route oral; settings: in vivo
[6] = Tmax in fasted Sprague-Dawley rat at 2 mg/kg, po; format: ADME, organism-based; design: dose 2 mg/kg, route oral; settings: in vivo
[7] = system: Rattus norvegicus; experiment: AUC (infinity) in fasted Sprague-Dawley rat at 2 mg/kg, po; format: ADME, organism-based, Plasma; design: time infinity, dose 2 mg/kg, route oral; settings: in vivo
[8] = Bioavailability in fasted Sprague-Dawley rat at 0.5 mg/kg, iv and 2 mg/kg, po; format: ADME, organism-based; settings: in vivo
[9] = biological target: T2, Transient receptor potential cation channel subfamily V member 1 (Homo sapiens, UniProt Q8NER1); experiment: Antagonist activity at human TRPV1 expressed in HEK293 cells assessed as inhibition of capsaicin-induced calcium flux; format: functional, cell-based
T2 sequence (Q8NER1 whole entry): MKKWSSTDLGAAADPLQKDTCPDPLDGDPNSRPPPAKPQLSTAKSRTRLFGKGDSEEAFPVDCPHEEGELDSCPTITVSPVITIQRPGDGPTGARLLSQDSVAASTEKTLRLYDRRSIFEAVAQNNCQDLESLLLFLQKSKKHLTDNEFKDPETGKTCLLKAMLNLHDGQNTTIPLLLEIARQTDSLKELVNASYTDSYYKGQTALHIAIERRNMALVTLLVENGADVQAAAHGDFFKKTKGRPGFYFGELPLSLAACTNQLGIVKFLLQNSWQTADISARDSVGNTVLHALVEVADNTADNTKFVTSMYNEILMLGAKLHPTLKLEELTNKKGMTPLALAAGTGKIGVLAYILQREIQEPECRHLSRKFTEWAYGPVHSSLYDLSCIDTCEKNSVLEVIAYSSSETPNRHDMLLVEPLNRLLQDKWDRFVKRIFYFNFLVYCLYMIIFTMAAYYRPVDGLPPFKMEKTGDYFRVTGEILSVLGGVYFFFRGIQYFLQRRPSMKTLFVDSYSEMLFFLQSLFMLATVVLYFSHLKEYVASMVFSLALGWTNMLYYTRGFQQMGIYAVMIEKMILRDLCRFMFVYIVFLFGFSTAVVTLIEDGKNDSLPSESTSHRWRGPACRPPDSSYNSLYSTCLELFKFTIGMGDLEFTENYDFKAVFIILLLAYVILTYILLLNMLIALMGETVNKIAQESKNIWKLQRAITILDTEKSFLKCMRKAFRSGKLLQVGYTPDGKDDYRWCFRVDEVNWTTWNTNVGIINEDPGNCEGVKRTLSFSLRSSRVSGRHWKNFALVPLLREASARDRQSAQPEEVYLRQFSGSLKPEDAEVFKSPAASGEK

[10] = Aqueous solubility in fasted-state simulated intestinal fluid at pH 6.8 after 3 days by HPLC; format: physicochemical
[11] = Aqueous solubility in simulated gastric fluid at pH 1.2 after 3 days by HPLC; format: physicochemical
[12] = system: Rattus norvegicus; experiment: Clearance in fasted Sprague-Dawley rat at 1 mg/kg, iv and 5 mg/kg, po; format: ADME, organism-based; settings: in vivo
[13] = Volume of distribution at steady state in fasted Sprague-Dawley rat at 1 mg/kg, iv and 5 mg/kg, po; format: ADME, organism-based; settings: in vivo, read-out: Vdss
[14] = Half life in fasted Sprague-Dawley rat at 1 mg/kg, iv and 5 mg/kg, po; format: ADME, organism-based; settings: in vivo
[15] = Cmax in fasted Sprague-Dawley rat at 5 mg/kg, po; format: ADME, organism-based; design: dose 5 mg/kg, route oral; settings: in vivo
[16] = Tmax in fasted Sprague-Dawley rat at 5 mg/kg, po; format: ADME, organism-based; design: dose 5 mg/kg, route oral; settings: in vivo
[17] = system: Rattus norvegicus; experiment: AUC (0 to infinity) in fasted Sprague-Dawley rat at 5 mg/kg, po; format: ADME, organism-based, Plasma; design: time infinity, dose 5 mg/kg, route oral; settings: in vivo
[18] = system: Rattus norvegicus; experiment: Bioavailability in fasted Sprague-Dawley rat at 1 mg/kg, iv and 5 mg/kg, po; format: ADME, organism-based; settings: in vivo
[19] = biological target: T2, Transient receptor potential cation channel subfamily V member 1; experiment: Antagonist activity at human TRPV1 expressed in HEK293 cells assessed as inhibition of low pH-induced calcium influx; format: functional, cell-based
[20] = biological target: T1, Transient receptor potential cation channel subfamily V member 1; experiment: Antagonist activity at rat TRPV1 expressed in HEK293 cells assessed as inhibition of low pH-induced calcium influx; format: functional, cell-based
[21] = biological target: T1, Transient receptor potential cation channel subfamily V member 1; experiment: Displacement of [3H]RTX from rat TRPV1 expressed in HEK293 cells; format: cell-based
[22] = system: Rattus norvegicus; experiment: Analgesic activity in rat model assessed as inhibition of carrageenan-induced thermal hyperalgesia at 30 mg/kg, po administered 1 hr prior carrageenan challenge relative to control; format: functional, organism-based; design: dose 30 mg/kg
[23] = system: Rattus norvegicus; experiment: Analgesic activity in rat model assessed as inhibition of carrageenan-induced thermal hyperalgesia at 3 mg/kg, po administered 1 hr prior carrageenan challenge relative to control; format: functional, organism-based; design: dose 3 mg/kg
[24] = system: Rattus norvegicus; experiment: Analgesic activity in rat model assessed as inhibition of carrageenan-induced thermal hyperalgesia at 1 mg/kg, po administered 1 hr prior carrageenan challenge relative to control; format: functional, organism-based; design: dose 1 mg/kg
[25] = system: Rattus norvegicus; experiment: Analgesic activity in rat model assessed as inhibition of carrageenan-induced thermal hyperalgesia at 0.3 mg/kg, po administered 1 hr prior carrageenan challenge relative to control; format: functional, organism-based; design: dose 0.3 mg/kg
[26] = system: Rattus norvegicus; experiment: Analgesic activity in rat model assessed as maximum degree of inhibition of carrageenan-induced thermal hyperalgesia at 3 mg/kg, po administered 1 hr prior carrageenan challenge measured after 4 hrs; format: functional; design: scale not given: the % may be the effect or the level left
[27] = system: Rattus norvegicus; experiment: Analgesic activity against carrageenan-induced thermal hyperalgesia in po dosed rat model assessed as paw withdrawal latency; format: functional, organism-based
[28] = system: Rattus norvegicus; experiment: Analgesic activity in po dosed rat model assessed as inhibition of carrageenan-induced thermal hyperalgesia administered 1 hr prior carrageenan challenge; format: functional
[29] = Plasma concentration in carrageenan-induced thermal hyperalgesia rat model at 0.3 mg/kg, po after 5 hrs post-carrageenan injection; format: ADME, organism-based; design: dose 0.3 mg/kg, route oral
[30] = Plasma concentration in carrageenan-induced thermal hyperalgesia rat model at 1 mg/kg, po after 5 hrs post-carrageenan injection; format: ADME, organism-based; design: dose 1 mg/kg, route oral
[31] = Plasma concentration in carrageenan-induced thermal hyperalgesia rat model at 3 mg/kg, po after 5 hrs post-carrageenan injection; format: ADME, organism-based; design: dose 3 mg/kg, route oral
[32] = Plasma concentration in carrageenan-induced thermal hyperalgesia rat model at 30 mg/kg, po after 5 hrs post-carrageenan injection; format: ADME, organism-based; design: dose 30 mg/kg, route oral
[33] = biological target: Transient receptor potential cation channel subfamily V member 1 (Rattus norvegicus) (UniProt O35433); experiment: Antagonist activity at rat TRPV1 assessed as fold increase in EC50 of capsaicin-induced isometric contraction in rat bladder at 100 nM; format: functional
Chain of Transient receptor potential cation channel subfamily V member 1 (Rattus norvegicus) (O35433 whole entry): as the sequence (O35433 whole entry) above

[34] = organism: Rattus norvegicus; experiment: Suppression of KCl-induced rat bladder contraction at 100 nM; format: functional, tissue-based; settings: Urinary bladder

For `OCc1cc(Cl)c(Nc2nc3c(Nc4ccc(C(F)(F)F)cc4)ncnc3s2)c(Cl)c1`, the IC50 [1] was 0.5 nM, the clearance [2] was 23.3 mL/min/kg and the Vd [3] was 2.9 L/kg. For the same compound, the half-life [4] was 1.8 h, the Cmax [5] was 200 nM and the Tmax [6] was 4 h. The AUC [7] was 638 ng·h/mL and the bioavailability [8] was 45%.
`Cc1ccccc1Nc1nc2c(Nc3ccc(C(F)(F)F)cc3)ncnc2s1` gave an IC50 [9] of 51 nM and an IC50 [1] of 14 nM.
`FC(F)(F)c1ccc(Nc2nc(NCC3CC3)nc3sc(Nc4c(Cl)cccc4Cl)nc23)cc1` gave an IC50 [9] of 3 nM and an IC50 [1] of 3 nM.
Work on `FC(F)(F)c1ccc(Nc2ncnc3c2CCN(c2ncccc2C(F)(F)F)C3)cc1` yielded an IC50 [9] of 15 nM and an IC50 [1] of 71 nM.
With `FC(F)(F)c1ccc(Nc2nc(N3CCCC3)nc3sc(Nc4c(Cl)cccc4Cl)nc23)cc1` the IC50 [9] was 12 nM and the IC50 [1] was 36 nM.
`Cc1ccc(Nc2ncnc3sc(Nc4c(Cl)cccc4Cl)nc23)cc1` gave an IC50 [9] of 33 nM and an IC50 [1] of 32 nM.
`NC(=O)c1cc(Cl)c(Nc2nc3c(Nc4ccc(C(F)(F)F)cc4)ncnc3s2)c(Cl)c1` showed an IC50 [9] of 69 nM and an IC50 [1] of 57 nM.
In the case of `Clc1cccc(Cl)c1Nc1nc2c(Nc3ccccc3)ncnc2s1`, the IC50 [9] is reported as 176 nM and the IC50 [1] is reported as 170 nM.
Work on `CC(C)c1ccc(Nc2ncnc3sc(Nc4c(Cl)cccc4Cl)nc23)cc1` yielded an IC50 [9] of 10 nM and an IC50 [1] of 3 nM.
For `NS(=O)(=O)c1ccc(Nc2ncnc3sc(Nc4c(Cl)cccc4Cl)nc23)cc1`, the IC50 [9] was > 5000 nM and the IC50 [1] was 590 nM.
Work on `Cc1cccc(Cl)c1Nc1nc2c(Nc3ccc(C(F)(F)F)cc3)ncnc2s1` yielded an IC50 [9] of 9 nM and an IC50 [1] of 1.6 nM.
Compound `CC(C)Nc1nc(Nc2ccc(C(F)(F)F)cc2)c2nc(Nc3c(Cl)cccc3Cl)sc2n1` has an IC50 [9] of 13 nM and an IC50 [1] of 9 nM.
`O=S(=O)(c1ccc(Nc2ncnc3sc(Nc4c(Cl)cccc4Cl)nc23)cc1)N1CCCC1` gave an IC50 [1] of 0.5 nM.
With `CS(=O)(=O)c1nc(Nc2ccc(C(F)(F)F)cc2)c2nc(Nc3c(Cl)cccc3Cl)sc2n1` the IC50 [9] was 274 nM and the IC50 [1] was 77 nM.
`CS(=O)(=O)c1ccc(Nc2ncnc3sc(Nc4c(Cl)cccc4Cl)nc23)cc1` showed an IC50 [9] of 5 nM, an IC50 [1] of 3 nM and a clearance [2] of 60 mL/min/kg. The Vd [3] was 2.2 L/kg and the half-life [4] was 1.2 h.
For `O=C(O)c1cc(Cl)c(Nc2nc3c(Nc4ccc(C(F)(F)F)cc4)ncnc3s2)c(Cl)c1`, the IC50 [9] was > 5000 nM and the IC50 [1] was > 5000 nM.
Compound `CC(C)(C)c1ccc(Nc2ncnc3sc(Nc4c(Cl)cccc4Cl)nc23)cc1` has an IC50 [9] of 11 nM.
In the case of `CN(c1ccc(C(F)(F)F)cc1)c1ncnc2sc(Nc3c(Cl)cccc3Cl)nc12`, the IC50 [9] is reported as > 5000 nM and the IC50 [1] is reported as > 1000 nM.
Work on `FC(F)(F)c1ccc(Nc2nc(NCCN3CCOCC3)nc3sc(Nc4c(Cl)cccc4Cl)nc23)cc1` yielded an IC50 [9] of 39 nM, an IC50 [1] of 11 nM and a solubility at 72 h [10] of 10 µg/mL (≈ 17.1 µM). It also gave a solubility at 72 h [11] of 116 µg/mL (≈ 198 µM), a clearance [2] of 30 mL/min/kg and a Vd [3] of 2.8 L/kg. For the same compound, the half-life [4] was 1.8 h, the Cmax [5] was 70 nM and the Tmax [6] was 2 h. For the same compound, the AUC [7] was 196 ng·h/mL and the bioavailability [8] was 17%.
Work on `N#Cc1cc(Cl)c(Nc2nc3c(Nc4ccc(C(F)(F)F)cc4)ncnc3s2)c(Cl)c1` yielded an IC50 [9] of 95 nM and an IC50 [1] of 53 nM.
`NCc1cc(Cl)c(Nc2nc3c(Nc4ccc(C(F)(F)F)cc4)ncnc3s2)c(Cl)c1` gave an IC50 [9] of 125 nM and an IC50 [1] of 54 nM.
Compound `CCN(CC)c1nc(Nc2ccc(C(F)(F)F)cc2)c2nc(Nc3c(Cl)cccc3Cl)sc2n1` has an IC50 [9] of 48 nM and an IC50 [1] of 34 nM.
`CC(C)N1CCN(c2nc(Nc3ccc(C(F)(F)F)cc3)c3nc(Nc4c(Cl)cccc4Cl)sc3n2)CC1` gave an IC50 [1] of 119 nM.
With `FC(F)(F)c1ccc(Nc2ncnc3sc(Nc4c(Cl)cccc4Cl)nc23)cc1` the solubility at 72 h [10] was 2 µg/mL (≈ 4.38 µM), the solubility at 72 h [11] was ≤ 1 µg/mL and the CL [12] was 10 mL/min/kg. It also gave a Vd [13] of 1.6 L/kg, a half-life [14] of 2.2 h and a Cmax [15] of 1100 nM. For the same compound, the Tmax [16] was 2 h, the AUC [17] was 10000 ng·h/mL and the F [18] was 43%. It also gave an IC50 [19] of 19 nM, an IC50 [20] of 6 nM and a Ki [21] of 4 nM. For the same compound, the Activity [22] was “Active”, the Activity [23] was “Active” and the Activity [24] was “Active”. The Activity [25] was “Active”, the Activity [26] was 57% and the Activity [27] was “inactive”. It also gave an ED50 [28] of 0.5 mg/kg, a concentration at 5 h [29] of 10 nM and a concentration at 5 h [30] of 58 nM. The concentration at 5 h [31] was 428 nM, the concentration at 5 h [32] was 3050 nM and the fold change (FC) [33] was 6. The Activity [34] was “inactive”.
`CSc1nc(Nc2ccc(C(F)(F)F)cc2)c2nc(Nc3c(Cl)cccc3Cl)sc2n1` gave an IC50 [9] of 224 nM and an IC50 [1] of 113 nM.
With `FC(F)(F)c1ccc(Nc2nc(N3CCNCC3)nc3sc(Nc4c(Cl)cccc4Cl)nc23)cc1` the IC50 [9] was > 5000 nM and the IC50 [1] was > 5000 nM.
